From patent US9492542B2, “Pharmaceutical composition for the treatment of MCP-1 mediated inflammatory diseases” (priority 2009, dated 2016)
Like-named read-outs stand apart in the source and are kept apart here.

Columns and labels:
[1] = tested on: MCP-1; experiment: Effect on LPS-induced MCP-1 plasma levels in mice (Example 1, ELISA); conditions: calculated versus vehicle group; same doses and schedule as E1
Description: MCP-1 plasma levels were measured by commercially available ELISA kit. Drugs were intraperitoneally (ip) administered 30 minutes before LPS injection (50 μg/mouse, ip) to groups of eight mice. […] The percent reduction was calculated versus the vehicle group.

[2] = Effect on proteinuria in human: Urinary Albumin Excretion (UAE) in Type 2 diabetes patients (Example 2); format: in vivo; conditions: 8 weeks, bindarit 600 mg twice a day, irbesartan 300 mg once a day
From the text: Irbesartan is a well known angiotensin receptor blockers (ARB). The treatment lasted 8 weeks.

[3] = tested on: MCP-1; conditions: calculated versus vehicle group; same doses and schedule as E6
Description: MCP-1 plasma levels were measured by commercially available ELISA kit.
Drugs were intraperitoneally (ip) administered 30 minutes before LPS injection (50 μg/mouse, ip) to groups of six mice. At 3 hours following
LPS injection, mice were anesthetized and blood was withdrawn by intracardiac puncture in order to obtain plasma (heparinized samples) to be used to measure MCP-1 levels.
The percent reduction was calculated versus the vehicle group.

SMILES	MCP-1 plasma level % reduction [1] [%]	other results
CCCCc1nc(Cl)c(CO)n1Cc1ccc(-c2ccccc2-c2nn[nH]n2)cc1 [Losartan, losartan]	13	–
CCCCC1=NC2(CCCC2)C(=O)N1Cc1ccc(-c2ccccc2-c2nnn[nH]2)cc1 [Placebo + Irbesartan, irbesartan]	–	Patient percentage with a UAE reduction equal to or higher than 25% with respect to basal value [2]: 27.5%
CCOC(=O)[C@H](CCc1ccccc1)N[C@@H](C)C(=O)N1[C@H](C(=O)O)C[C@@H]2CCC[C@@H]21 [Ramipril, ramipril]	30	–
CCC(C)(C)C(=O)O[C@H]1C[C@@H](C)C=C2C=C[C@H](C)[C@H](CC[C@@H]3C[C@@H](O)CC(=O)O3)[C@H]21 [Simvastatin, simvastatin]	7	–
COc1ccc(CCN(C)CCCC(C#N)(c2ccc(OC)c(OC)c2)C(C)C)cc1OC (centres unmarked) [Verapamil, verapamil]	–	MCP-1 plasma level % reduction [3]: 26%
